Assay results reported in patent publication US20080145424A1, “Sustained release L-arginine formulations and methods of manufacture and use” (Enos Phramaceuticals, Inc., priority 2002, published 2008).

Tested on: total infarct volume
Test: Dose optimization of combination of simvastatin and L-arginine, infarct volume in mice
Format: in vivo
Conditions: mice injected with varying levels of simvastatin and L-arginine; predicted by statistical analysis

CCC(C)(C)C(=O)O[C@H]1C[C@@H](C)C=C2C=C[C@H](C)[C@H](CC[C@@H]3C[C@@H](O)CC(=O)O3)[C@H]21 [simvastatin]
optimal range of the combination: 1.2 to 1.4 mg/kg
